Test results taken from patent US20210070748A1, “INHIBITORS OF BRUTONS TYROSINE KINASE” (Pharmacyclics LLC, priority 2015, published 2021).

Key:
Format in all cases: biochemical
JAK3 = target: T1, JAK3 (Homo sapiens, UniProt P52333); test: Inhibition of a panel of kinases, in vitro HotSpot kinase assay: JAK3; conditions: D-compounds panel data; 1 μM ATP; read-out: IC50 JAK3
T1 sequence (P52333 1-1124): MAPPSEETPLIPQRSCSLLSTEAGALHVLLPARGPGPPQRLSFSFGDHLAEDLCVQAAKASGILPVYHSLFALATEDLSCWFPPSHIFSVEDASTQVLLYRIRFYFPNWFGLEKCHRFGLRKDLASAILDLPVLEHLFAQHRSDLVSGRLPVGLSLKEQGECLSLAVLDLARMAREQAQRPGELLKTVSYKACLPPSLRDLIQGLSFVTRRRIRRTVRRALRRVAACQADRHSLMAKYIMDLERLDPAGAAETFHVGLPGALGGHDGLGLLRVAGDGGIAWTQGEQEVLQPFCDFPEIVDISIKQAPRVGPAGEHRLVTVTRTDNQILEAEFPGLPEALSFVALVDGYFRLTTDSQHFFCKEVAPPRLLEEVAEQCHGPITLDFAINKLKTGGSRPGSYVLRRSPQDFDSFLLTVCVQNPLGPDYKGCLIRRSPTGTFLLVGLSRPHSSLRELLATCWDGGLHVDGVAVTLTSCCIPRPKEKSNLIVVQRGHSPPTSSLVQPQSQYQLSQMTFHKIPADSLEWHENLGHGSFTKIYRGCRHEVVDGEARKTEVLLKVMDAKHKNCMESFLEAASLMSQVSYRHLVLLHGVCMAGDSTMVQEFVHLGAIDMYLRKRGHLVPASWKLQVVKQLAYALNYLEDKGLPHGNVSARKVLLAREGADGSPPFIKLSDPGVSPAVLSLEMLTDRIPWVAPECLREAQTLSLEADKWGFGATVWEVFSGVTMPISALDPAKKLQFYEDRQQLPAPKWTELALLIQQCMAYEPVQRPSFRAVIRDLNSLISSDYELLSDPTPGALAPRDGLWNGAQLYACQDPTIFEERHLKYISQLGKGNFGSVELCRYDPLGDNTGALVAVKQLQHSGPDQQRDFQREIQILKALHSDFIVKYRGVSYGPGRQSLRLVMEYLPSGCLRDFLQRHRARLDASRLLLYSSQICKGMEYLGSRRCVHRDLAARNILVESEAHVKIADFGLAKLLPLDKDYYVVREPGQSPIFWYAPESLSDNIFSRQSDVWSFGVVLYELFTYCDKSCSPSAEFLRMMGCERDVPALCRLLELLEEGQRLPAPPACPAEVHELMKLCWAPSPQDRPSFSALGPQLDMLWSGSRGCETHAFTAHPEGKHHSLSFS

SRC = SRC (Homo sapiens, UniProt P12931); test: Inhibition of a panel of kinases, in vitro HotSpot kinase assay: SRC; conditions: D-compounds panel data; 1 μM ATP
Method: (§1) The degree of inhibition of a panel of kinases is determined using the in vitro HotSpot kinase assay (purified enzymes, ^33P-ATP, an appropriate substrate and 1 μM ATP).

TEC = target: T2, TEC (Homo sapiens, UniProt P42680); test: Inhibition of a panel of kinases, in vitro HotSpot kinase assay: TEC; conditions: D-compounds panel data; 1 μM ATP
T2 sequence (P42680 1-631): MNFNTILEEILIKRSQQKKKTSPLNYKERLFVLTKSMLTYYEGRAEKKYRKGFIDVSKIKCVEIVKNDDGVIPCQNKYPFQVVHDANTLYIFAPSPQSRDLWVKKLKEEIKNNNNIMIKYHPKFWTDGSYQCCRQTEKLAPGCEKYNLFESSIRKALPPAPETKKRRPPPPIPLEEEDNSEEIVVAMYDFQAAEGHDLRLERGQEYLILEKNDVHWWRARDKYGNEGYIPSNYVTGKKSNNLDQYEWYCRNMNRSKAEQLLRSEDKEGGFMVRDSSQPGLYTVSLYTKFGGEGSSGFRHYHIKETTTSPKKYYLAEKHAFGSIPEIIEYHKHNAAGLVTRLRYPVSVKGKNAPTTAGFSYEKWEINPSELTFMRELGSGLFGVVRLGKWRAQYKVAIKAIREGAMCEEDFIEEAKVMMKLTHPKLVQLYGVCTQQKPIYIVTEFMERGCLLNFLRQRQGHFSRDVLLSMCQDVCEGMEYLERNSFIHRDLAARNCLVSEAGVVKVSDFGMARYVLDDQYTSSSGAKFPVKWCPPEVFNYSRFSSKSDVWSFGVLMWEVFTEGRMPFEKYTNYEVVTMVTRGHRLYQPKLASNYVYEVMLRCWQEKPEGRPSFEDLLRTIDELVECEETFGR
Method: as §1

Chain of SRC (P12931 whole entry): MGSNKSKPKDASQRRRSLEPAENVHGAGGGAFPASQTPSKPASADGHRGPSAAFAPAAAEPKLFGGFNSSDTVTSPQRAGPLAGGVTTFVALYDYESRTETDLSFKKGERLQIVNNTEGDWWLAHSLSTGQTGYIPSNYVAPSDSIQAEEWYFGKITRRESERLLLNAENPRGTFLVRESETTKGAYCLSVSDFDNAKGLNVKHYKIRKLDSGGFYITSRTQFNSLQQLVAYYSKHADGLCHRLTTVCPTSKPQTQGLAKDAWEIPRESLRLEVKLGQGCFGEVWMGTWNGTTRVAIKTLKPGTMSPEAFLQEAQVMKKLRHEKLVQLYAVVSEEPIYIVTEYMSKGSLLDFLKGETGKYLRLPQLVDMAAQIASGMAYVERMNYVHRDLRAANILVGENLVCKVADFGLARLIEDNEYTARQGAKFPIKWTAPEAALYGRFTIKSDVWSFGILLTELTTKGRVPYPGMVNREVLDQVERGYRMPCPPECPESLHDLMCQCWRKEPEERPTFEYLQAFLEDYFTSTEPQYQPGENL

Row | IC50 (JAK3) [nM] | IC50 (SRC) [nM] | IC50 (TEC) [nM] | Structure (SMILES)
1 | 100 to 1000 | 10 to 100 | 10 to 100 | C[C@@H]1[C@H](NC(=O)c2cc(C(C)(C)C)n[nH]2)CCCN1c1cnc(C(N)=O)c(Nc2cnn(C)c2)n1 [Example D-244, 5-[(2R,3R)-3-(3-tert-butyl-1H-pyrazole-5-amido)-2-methylpiperidin-1-yl]-3-[(1-methyl-1H-pyrazol-4-yl)amino]pyrazine-2-carboxamide]
2 | 1000 to 10000 | 10 to 100 | ≤ 10 | C[C@@H]1[C@H](NC(=O)c2ccc3nn(C)cc3c2)CCCN1c1cnc(C(N)=O)c(Nc2cnn(C)c2)n1 [Example D-267, N-[(2R,3R)-1-{5-carbamoyl-6-[(1-methyl-1H-pyrazol-4-yl)amino]pyrazin-2-yl}-2-methylpiperidin-3-yl]-2-methyl-2H-indazole-5-carboxamide]
3 | 100 to 1000 | 10 to 100 | ≤ 10 | C[C@@H]1[C@H](NC(=O)c2ccc(C(C)(O)CO)cc2)CCCN1c1cnc(C(N)=O)c(Nc2cnn(C)c2)n1 (single isomer, unassigned) [Example D-256]
4 | 100 to 1000 | 10 to 100 | ≤ 10 | C[C@@H]1[C@H](NC(=O)c2ccc3ncsc3c2)CCCN1c1cnc(C(N)=O)c(Nc2cnn(C)c2)n1 [Example D-243, N-[(2R,3R)-1-{5-carbamoyl-6-[(1-methyl-1H-pyrazol-4-yl)amino]pyrazin-2-yl}-2-methylpiperidin-3-yl]-1,3-benzothiazole-6-carboxamide]
5 | 1000 to 10000 | 100 to 1000 | 10 to 100 | CCN(C)C(=O)N[C@@H]1CCCN(c2cnc(C(N)=O)c(Nc3cnn(C)c3)n2)[C@@H]1C [Example D-304, 5-[(2R,3R)-3-{[ethyl(methyl)carbamoyl]amino}-2-methylpiperidin-1-yl]-3-[(1-methyl-1H-pyrazol-4-yl)amino]pyrazine-2-carboxamide]
6 | 1000 to 10000 | 10 to 100 | ≤ 10 | Cc1nc2cc(C(=O)N[C@@H]3CCCN(c4cnc(C(N)=O)c(Nc5cnn(C)c5)n4)[C@@H]3C)ccc2[nH]1 [Example D-261, N-[(2R,3R)-1-{5-carbamoyl-6-[(1-methyl-1H-pyrazol-4-yl)amino]pyrazin-2-yl}-2-methylpiperidin-3-yl]-2-methyl-1H-1,3-benzodiazole-5-carboxamide]
7 | 1000 to 10000 | 100 to 1000 | 10 to 100 | C[C@@H]1[C@H](NC(=O)c2cc(C(C)(C)C)on2)CCCN1c1cnc(C(N)=O)c(Nc2cnn(C)c2)n1 [Example D-247, 5-[(2R,3R)-3-(5-tert-butyl-1,2-oxazole-3-amido)-2-methylpiperidin-1-yl]-3-[(1-methyl-1H-pyrazol-4-yl)amino]pyrazine-2-carboxamide]
8 | 100 to 1000 | 10 to 100 | ≤ 10 | C[C@@H]1[C@H](NC(=O)c2ccc(C3COC3)cc2)CCCN1c1cnc(C(N)=O)c(Nc2cnn(C)c2)n1 [Example D-23, 3-[(1-methyl-1H-pyrazol-4-yl)amino]-5-[(2R,3R)-2-methyl-3-[4-(oxetan-3-yl)benzamido]piperidin-1-yl]pyrazine-2-carboxamide]
9 | 1000 to 10000 | 10 to 100 | ≤ 10 | C[C@@H]1[C@H](NC(=O)c2ccc(C3(CO)CC3)cc2)CCCN1c1cnc(C(N)=O)c(Nc2cnn(C)c2)n1 [Example D-260, 5-[(2R,3R)-3-{4-[1-(hydroxymethyl)cyclopropyl]benzamido}-2-methylpiperidin-1-yl]-3-[(1-methyl-1H-pyrazol-4-yl)amino]pyrazine-2-carboxamide]

Continued, compound first:

Row | Structure (SMILES) | IC50 (JAK3) [nM] | IC50 (SRC) [nM] | IC50 (TEC) [nM]
10 | C[C@@H]1[C@H](NC(=O)c2ccc(C3CC3)cc2)CCCN1c1nnc(C(N)=O)c(Nc2cnn(C)c2)n1 [Example D-277, 3-[(2R,3R)-3-(4-cyclopropylbenzamido)-2-methylpiperidin-1-yl]-5-[(1-methyl-1H-pyrazol-4-yl)amino]-1,2,4-triazine-6-carboxamide] | 100 to 1000 | 10 to 100 | ≤ 10
11 | CCn1cc(Nc2nc(N3CCC[C@@H](NC(=O)c4ccc(C5CC5)cc4)[C@H]3C)cnc2C(N)=O)cn1 [Example D-273, 5-[(2R,3R)-3-(4-cyclopropylbenzamido)-2-methylpiperidin-1-yl]-3-[(1-ethyl-1H-pyrazol-4-yl)amino]pyrazine-2-carboxamide] | 1000 to 10000 | 100 to 1000 | 10 to 100
12 | COCCn1cc(Nc2nc(N3CCC[C@@H](NC(=O)c4ccc(C5CC5)cc4)[C@H]3C)cnc2C(N)=O)cn1 [Example D-270, 5-[(2R,3R)-3-(4-cyclopropylbenzamido)-2-methylpiperidin-1-yl]-3-{[1-(2-methoxyethyl)-1H-pyrazol-4-yl]amino}pyrazine-2-carboxamide] | 1000 to 10000 | 100 to 1000 | 100 to 1000
13 | C[C@@H]1[C@H](NC(=O)c2ccc(C3CC3)cc2)CCCN1c1cnc(C(N)=O)c(Nc2cnn(C3CC3)c2)n1 [Example D-279, 3-[(1-cyclopropyl-1H-pyrazol-4-yl)amino]-5-[(2R,3R)-3-(4-cyclopropylbenzamido)-2-methylpiperidin-1-yl]pyrazine-2-carboxamide] | > 10000 | 100 to 1000 | ≤ 10
14 | C[C@@H]1[C@H](NC(=O)c2ccc(C3CC3)cc2)CCCN1c1cnc(C(N)=O)c(Nc2cnn(C3CCNCC3)c2)n1 [Example D-280, 5-[(2R,3R)-3-(4-cyclopropylbenzamido)-2-methylpiperidin-1-yl]-3-{[1-(piperidin-4-yl)-1H-pyrazol-4-yl]amino}pyrazine-2-carboxamide] | 1000 to 10000 | ≤ 10 | ≤ 10
15 | C[C@@H]1[C@H](NC(=O)c2ccc(C3CC3)cc2)CCCN1c1cnc(C(N)=O)c(Nc2ccc3c(c2)CCOC3)n1 [Example D-303, 5-[(2R,3R)-3-(4-cyclopropylbenzamido)-2-methylpiperidin-1-yl]-3-[(3,4-dihydro-1H-2-benzopyran-6-yl)amino]pyrazine-2-carboxamide] | > 10000 | 1000 to 10000 | 10 to 100
16 | C[C@@H]1[C@H](NC(=O)c2ccc(C3CC3)cc2)CCCN1c1cnc(C(N)=O)c(Nc2cn[nH]c2)n1 [Example D-282, 5-[(2R,3R)-3-(4-cyclopropylbenzamido)-2-methylpiperidin-1-yl]-3-[(1H-pyrazol-4-yl)amino]pyrazine-2-carboxamide] | > 10000 | 100 to 1000 | 10 to 100
17 | C[C@@H]1[C@H](NC(=O)c2ccc(C(C)(C)C)cc2)CCCN1c1nnc(C(N)=O)c(Nc2cnn(C)c2)n1 [Example D-285, 3-[(2R,3R)-3-(4-tert-butylbenzamido)-2-methylpiperidin-1-yl]-5-[(1-methyl-1H-pyrazol-4-yl)amino]-1,2,4-triazine-6-carboxamide] | 100 to 1000 | 10 to 100 | ≤ 10
18 | C[C@@H]1[C@H](NC(=O)c2ccc(C3CC3)cc2)CCCN1c1cnc(C(N)=O)c(Nc2cnn(C(F)F)c2)n1 [Example D-275, 5-[(2R,3R)-3-(4-cyclopropylbenzamido)-2-methylpiperidin-1-yl]-3-{[1-(difluoromethyl)-1H-pyrazol-4-yl]amino}pyrazine-2-carboxamide] | > 10000 | 100 to 1000 | 10 to 100
